This passage reports Ki and Kb results from ChEMBL document CHEMBL5137067, “Spiro-naphthyridine Antagonists of the Melanocortin Receptor 4 for the Treatment of Cachexia Associated with Chronic Illness” (ACS Med Chem Lett, 2022).

The target of assay [1] is T1, Melanocortin receptor 4 (Homo sapiens, UniProt P32245). Nature of the assay: Displacement of [125I]-[Nle4-D-phe7]-alpha-MSH from to human MC4R expressed in CHO cells incubated for 2 hrs by liquid scintillation counting method. Type of assay: cell-based. For orientation: In a radioligand displacement assay an active substance lowers the binding of a labelled ligand.
T1 sequence (P32245 whole entry): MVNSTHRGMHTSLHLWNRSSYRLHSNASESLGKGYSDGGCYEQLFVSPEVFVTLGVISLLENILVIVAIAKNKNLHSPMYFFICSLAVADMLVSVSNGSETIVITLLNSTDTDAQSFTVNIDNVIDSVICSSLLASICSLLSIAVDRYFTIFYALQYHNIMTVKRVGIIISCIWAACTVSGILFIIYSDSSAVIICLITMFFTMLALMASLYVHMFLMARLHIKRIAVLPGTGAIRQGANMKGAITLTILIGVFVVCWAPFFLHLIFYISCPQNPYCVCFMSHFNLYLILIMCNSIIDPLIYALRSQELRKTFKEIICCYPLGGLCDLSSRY

Assay [2] deals with T1, Melanocortin receptor 4. Nature of the assay: Antagonist activity at human MC4R expressed in CHO cells assessed as decrease in alpha-MSH induced cAMP level by measuring equilibrium binding constant preincubated for 30 mins followed by alpha-MSH addition measured after 30 mins by HTRF method. It counts as functional, cell-based. The conditions noted are these: time 60.0 min. (In general: cAMP levels reflect the balance of adenylyl cyclase and phosphodiesterase activity.)

As usually defined, the Ki is the equilibrium dissociation constant of an inhibitor or competing ligand from its target. The low end stands for higher affinity, the high end for lower affinity. In general, Kb refers to the equilibrium dissociation constant of an antagonist, usually derived from a functional assay. For the compound `Cc1nc2c(cc1-c1ncccn1)CC[C@@]1(CCN(C(=O)C(C)c3ccc(Cl)cc3Cl)C1)N2` (stereo partly drawn), the affinity in assay [1] corresponds to a Ki of 82 nM. Moreover, the Kb in assay [2] is more than 96 nM.

The compound `Cc1nc2c(cc1-c1ncccn1)CC[C@@]1(CCN(C(=O)C(C)c3cc(OC(F)F)ncc3Cl)C1)N2` (single isomer, unassigned) gave a Ki in assay [1] of 0.54 nM. In addition, the Kb in assay [2] (filed as antagonist) was found to be 0.18 nM.

`Cc1nc2c(cc1-c1cnn(C)c1)CC[C@@]1(CCN(C(=O)C(C)c3ccc(OC(F)F)nc3)C1)N2` (stereo partly drawn): the affinity in assay [1], expressed as Ki, was 57 nM.

`COc1cc([C@@H](C)C(=O)N2CC[C@@]3(CCc4cc(-c5nc6ccccn6n5)c(C)nc4N3)C2)c(Cl)cn1`: the affinity in assay [1], expressed as Ki, was 0.28 nM. Besides, the Kb in assay [2] (filed as antagonist) came out at 0.07 nM.

Take `COc1cc(OC)cc([C@@H](C)C(=O)N2CCC3(CCc4cc(-c5cnn(C)c5)c(C)nc4N3)C2)c1` (single isomer, unassigned): the Kb in assay [2] (filed as antagonist) is 0.4 nM.

Compound `Cc1nc2c(cc1-c1ncccn1)CC[C@@]1(CCN(C(=O)[C@H](C)c3ccc(OC(F)F)nc3)C1)N2` displayed a Ki in assay [1] of more than 200 nM.

With `COc1cc([C@@H](C)C(=O)N2CC[C@@]3(CCc4cc(-c5nc(C(F)F)n(C)n5)c(C)nc4N3)C2)c(Cl)cn1`, in assay [2] (filed as antagonist), the Kb was 0.08 nM.

With `COc1cc([C@@H](C)C(=O)N2CC[C@]3(CCc4cc(-c5nnn(C)n5)c(C)nc4N3)C2)c(Cl)cn1`, in assay [2] (filed as antagonist), the antagonist dissociation constant (Kb) came out at 1.2 nM.

Take `Cc1nc2c(cc1-c1ncccn1)CC[C@@]1(CCN(C(=O)[C@@H](C)c3ccc(OC(F)F)nc3)C1)N2`: the Kb in assay [2] (filed as antagonist) worked out at 8.5 nM.

On to `COc1cc([C@@H](C)C(=O)N2CC[C@@]3(CCc4cc(-c5nnn(C)n5)c(C)nc4N3)C2)c(Cl)cn1`, for which the Kb in assay [2] (filed as antagonist) turned out to be 0.049 nM.
